The target of the test is T1, GABAA receptor (γ-aminobutyric acid subtype A receptor).
T1 construct: gene Gabra1; native receptor mixture in cerebral cortical synaptosomal membranes of adult male rats
The test can be described thus: [3H]muscimol binding to rat cortical membranes, filtration. The settings on record: enhancement of 5 nM [3H]muscimol binding; 50 mM Tris-HCl pH 7.4, 0-4 °C, 1 h; in DMSO; positive modulation.

As for `C=CCc1ccc(O)c(OC)c1` [eugenol], the EC50 (as a rule, the midpoint of the concentration-response curve) was determined as 1.25 mM.

(Values after article PMC9147060, “Elucidating Pathway and Anesthetic Mechanism of Action of Clove Oil Nanoformulations in Fish” (Pharmaceutics, 2022).)
